Results on 80 compounds are retold here after the METLIN SMRT retention time set (Domingo-Almenara et al. 2019).

This data set in a line: gradient 5% acetonitrile 3 min, to 50% in 2 min, to 85% in 15 min, held 3 min, 100 µL/min. Conditions: column: Zorbax Extend-C18 2.1 x 50 mm; eluents: water / acetonitrile, 0.1% formic acid. The essentials:
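Over 3 months, pure standards in mixtures of ~100 molecules were run by HPLC coupled to a quadrupole time-of-flight mass spectrometer in positive and negative ionization mode. The column was a Zorbax Extend-C18 (2.1 × 50 mm, 1.8 μm) at 100 μL/min, eluted with water and acetonitrile each holding 0.1% formic acid, with 40 μL dead and 900 μL dwell volumes. Retention time was determined from adduct peaks chosen by software and checked manually.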
`Cc1c(C(=O)NC(C)C)cnn1-c1cc(-c2nc(C(C)C)no2)ccn1`: the RP-LC retention time worked out at 868 s.

Compound `Cc1ccc(F)c(Nc2ncccc2S(N)(=O)=O)c1` yielded an RP-LC retention time of 826 s.

For `CN(C)c1cccc(C(=O)NC2CCN(c3cc(-c4ccc(Cl)cc4)[nH]n3)C2)c1` (stereo not given), the RP-LC retention time is 865 s.

`O=C(c1cc(-c2ccncc2)n[nH]1)N1CCC(C(=O)N2CCN(C(=O)c3ccco3)CC2)CC1`: the RP-LC retention time was 566 s.

Take `CCCCNC(=O)C1CCN(c2cnn(Cc3ccccc3)c(=O)c2)CC1`: the RP-LC retention time was 752 s.

`O=C(NCCC1=CCCCC1)c1nc(Nc2ccc(F)cc2)c2ccccc2n1`: the RP-LC retention time came out at 962 s.

Regarding `CN(C(=O)Cn1cccc1-c1nc(-c2ccc3c(c2)OCO3)no1)c1ccccc1`, the RP-LC retention time amounted to 1090 s.

Compound `CC1=CC(=O)C2=C(C)C[C@H](O)[C@H]3[C@H](C)C(=O)O[C@@H]3C12` (stereo not given in full) had an RP-LC retention time of 725 s.

For the compound `Cc1ccc(-c2cc(C(=O)O)n(C)c2)cc1`, the RP-LC retention time came out at 856 s.

In turn, `O=C(NCCCn1c(-c2ccncc2)nc2cccnc21)Nc1ccc(F)c(Cl)c1` displayed an RP-LC retention time of 693 s.

Take `O=C(Oc1coc(CSc2ncccn2)cc1=O)c1cccs1`: the RP-LC retention time was determined as 695 s.

For the compound `COC(=O)C(Cc1ccccc1)NC(=O)N1CCCn2nc(-c3cccs3)cc2C1` (stereo not given), the RP-LC retention time was determined as 841 s.

In turn, `O=C(NCc1ccccc1F)C1CCN(C(=O)c2ncn3c2COC(c2ccccc2)C3)CC1` (stereo not given) returned an RP-LC retention time of 747 s.

On to `Cc1ccc(S(=O)(=O)C2CS(=O)(=O)CC2S(=O)(=O)c2ccc(C)cc2)cc1` (stereo not given), for which the RP-LC retention time was 856 s.

The compound `CCCOc1ccc(CNC(=O)c2nc3cccnc3n(CC)c2=O)cc1` displayed an RP-LC retention time of 918 s.

The compound `COc1cccc(NC(=O)Cn2nc3c(N(C)C4CCCCC4)nccn3c2=O)c1` gave an RP-LC retention time of 745 s.

`O=C(CCC1CCN(c2cc(NC3CC3)ncn2)CC1)NCc1cccs1` gave an RP-LC retention time of 633 s.

As for `CCC(C)NC(=O)CC1CCN(C(=O)c2[nH]c(C)c(C(=O)OC)c2C)CC1` (stereo not given), the RP-LC retention time came out at 663 s.

As for `Cc1ccc(S(=O)(=O)N2CCC(c3noc(-c4cccc(F)c4)n3)CC2)cc1`, the RP-LC retention time was found to be 1160 s.

Compound `CC(C(=O)N1CCN(C(=O)c2ccco2)CC1)n1c2ccccc2c2cnn(C)c(=O)c21` (stereo not given) returned an RP-LC retention time of 746 s.

Turning to `CC(=O)Nc1ccc(-c2nc(-c3cccc(-c4ccnn4C)c3)no2)cc1`, the RP-LC retention time came out at 1140 s.

For the compound `O=C(c1cccc(F)c1)N1CCC(C(=O)N2CCN(Cc3ccc4c(c3)OCO4)CC2)CC1`, the RP-LC retention time is 610 s.

Compound `Cc1cc(N2CCN(S(=O)(=O)c3cccc(C(F)(F)F)c3)CC2)nc(NC2CCCCC2)n1` had an RP-LC retention time of 890 s.

Turning to `Cc1nc(CC(=O)Nc2nc(-c3ccc(Br)cc3)c(C)s2)cs1`, the RP-LC retention time worked out at 994 s.

`CC(C)N1C(=O)C(C)(C(=O)NCc2ccc3c(c2)OCO3)Oc2cccnc21` (stereo not given) had an RP-LC retention time of 894 s.

As to `Cc1nc(C)c(C(=O)N2C[C@H]3C[C@H](C2)[C@H]2CCCC(=O)N2C3)s1`, the RP-LC retention time is 755 s.

Compound `CCC1CCCCN1Cc1nc(Cn2ccn3nc(-c4ccc(C)cc4)cc3c2=O)no1` (stereo not given) registered an RP-LC retention time of 726 s.

`CCOC(=O)CNC(=O)NCCn1c(C(F)(F)F)nc2ccccc21` showed an RP-LC retention time of 686 s.

Compound `Cc1cccc(-c2ncccc2CNS(=O)(=O)c2cc(F)ccc2C)c1` showed an RP-LC retention time of 774 s.

`Cc1ccccc1OCC(=O)NCCN1CCN(S(C)(=O)=O)CC1` registered an RP-LC retention time of 558 s.

Consider `CCc1ccc2c(c1)c(=O)c(C(=O)c1ccccc1)cn2CC(=O)Nc1cccc(Cl)c1`, for which the RP-LC retention time came out at 892 s.

For `Cc1cccc(Nc2nc(-c3ccncc3)cs2)c1`, the RP-LC retention time turned out to be 734 s.

In turn, `Cn1cnc([N+](=O)[O-])c1Sc1ncn[nH]1` yielded an RP-LC retention time of 626 s.

`Cc1ccc(CNC(=O)Nc2ccc(-c3nc(-c4cc(C)ccc4C)co3)cc2)cc1`: the RP-LC retention time was determined as 1240 s.

With `CCOC(=O)C(C)(C)Sc1nnc(N2CCN(c3ccccc3)CC2)s1`, the RP-LC retention time is 997 s.

`Cc1cc(C)c2c(N3CCOCC3)nc(C(=O)NCCN3CCCCCC3)nc2n1` returned an RP-LC retention time of 555 s.

For `Cc1cccc(OCc2nc(CCN(C)C(=O)NCc3ccco3)no2)c1`, the RP-LC retention time came out at 844 s.

For `Cc1ccc(-c2nnc(CC(=O)NCC(C)C)o2)cc1`, the RP-LC retention time amounted to 775 s.

With `Cc1cc(Br)ccc1NC(=O)C1CCN(C(=O)c2cccn2-c2cccnc2)CC1`, the RP-LC retention time stood at 763 s.

The compound `CC(C)CNC(=O)Nc1ccc2c(c1)CCN2S(C)(=O)=O` came in with an RP-LC retention time of 733 s.

`Cc1cc(NC(=O)CSc2c(-c3ccccc3)[nH]c3ccccc23)no1` gave an RP-LC retention time of 846 s.

`COC[C@@H]1CN(C(=O)c2ccoc2C)C[C@H]1c1nc(C2CC2)no1` yielded an RP-LC retention time of 574 s.

Take `COc1ccc(Cl)cc1NC(=O)Cn1c(C)nc(-c2ccccn2)cc1=O`: the RP-LC retention time came out at 727 s.

Turning to `O=C(CN1CC=C(c2cnn(-c3ccccc3)c2)CC1)N1CCOCC1`, the RP-LC retention time was found to be 604 s.

In turn, `N[C@H]1CCN(O)C1=O` had an RP-LC retention time of 627 s.

Take `Cc1cc2c(c(C#N)c1C)NC=NC2C` (stereo not given): the RP-LC retention time came to 641 s.

As to `CCOC(=O)N1CCC(Nc2c(C(=O)OC)c(=O)[nH]c3c(Cl)cccc23)CC1`, the RP-LC retention time is 731 s.

`CC(C)(C)c1noc(-c2cccn3c(CC(=O)NC4CCCCC4)nnc23)n1` had an RP-LC retention time of 754 s.

`CCn1c(=O)c(C)nc2cc(-c3noc(-c4cccc(Cl)c4)n3)ccc21` displayed an RP-LC retention time of 1220 s.

The compound `O=C(Cn1nnc2ccccc2c1=O)Nc1nc2ccccc2[nH]1` had an RP-LC retention time of 597 s.

`CCCNC(=O)N1CCCCCC1CN1CCC(OC)CC1` (stereo not given) yielded an RP-LC retention time of 604 s.

Compound `COc1cc(NC(=O)Cc2cn3cc(Cl)ccc3n2)c(OC)cc1Cl` came in with an RP-LC retention time of 675 s.

Compound `Cc1nc2ccn(Cc3cccs3)c(=O)c2cc1C(=O)NCCC1=CCCCC1` returned an RP-LC retention time of 931 s.

`CCN1C(=O)COc2ccc(-c3csc(NC(=O)CCc4ccc(C)cc4)n3)cc21` showed an RP-LC retention time of 1070 s.

Compound `Cc1cccc(-c2nc(N3CC4(C)CC3CC(C)(C)C4)c3ccccc3n2)c1` (stereo not given) had an RP-LC retention time of 1060 s.

Take `COc1ccc(-c2nnc(COc3ccc(NC(=O)c4n[nH]c5c4CCCC5)cc3)o2)cc1`: the RP-LC retention time turned out to be 907 s.

Consider `Nc1ccc(Nc2ccccc2)c(S(=O)(=O)O)c1`, for which the RP-LC retention time is 639 s.

Compound `Cc1noc(C)c1C1CCCN1C(=O)Cc1cccc(Cl)c1` (stereo not given) registered an RP-LC retention time of 810 s.

As for `Cc1ccc(Cl)c(NC(=O)c2[nH]c3cc(C)sc3c2CN2CCOCC2)c1`, the RP-LC retention time amounted to 724 s.

The compound `Cc1ccc(-c2nnc(SCC(=O)Nc3ccc(C)cc3Br)o2)cc1` yielded an RP-LC retention time of 830 s.

Turning to `COc1cc(OC)c(NC(=O)C2CCN(S(=O)(=O)c3cn(C(C)C)cn3)CC2)cc1Cl`, the RP-LC retention time came to 814 s.

As for `O=c1n(Cc2cc(F)cc(F)c2)nc2c(S(=O)(=O)N3CCc4ccccc4C3)cccn12`, the RP-LC retention time worked out at 966 s.

On to `Cc1ccc(-n2ncc3c(=O)n(Cc4nc(-c5ccc(F)c(Br)c5)no4)cnc32)cc1`, for which the RP-LC retention time stood at 1220 s.

`COCCOCc1nc(C2CCN(S(=O)(=O)c3c(C)noc3C)CC2)no1` came in with an RP-LC retention time of 793 s.

In the case of `Cc1ccc(C(=O)N2CCCn3cc(-c4cccc(C#N)c4)nc32)cn1`, the RP-LC retention time stood at 636 s.

Compound `CSc1cccc(NC(=O)CN2C(=O)C3CCCCN3c3ccc(S(=O)(=O)N(C)C)cc32)c1` (stereo not given) registered an RP-LC retention time of 982 s.

As to `CC1CCN(CCNS(=O)(=O)c2ccccc2-c2nc(-c3cccc(F)c3)no2)CC1`, the RP-LC retention time was found to be 755 s.

In turn, `COc1ccc(-c2csc(NC(=O)CSc3nc(C)cc(C)n3)n2)cc1` registered an RP-LC retention time of 979 s.

The compound `O=C(Nc1cccc(F)c1)N1CCCC1c1nc(-c2cccc(Cl)c2)no1` (stereo not given) had an RP-LC retention time of 1080 s.

With `Cc1ccc(NC(=O)c2cc(C(C)C)n3nccc3n2)cc1C`, the RP-LC retention time stood at 1250 s.

`Cn1cc(-c2nc(C(=O)NCc3ccc(F)c(Cl)c3)cs2)c2cccnc21`: the RP-LC retention time was determined as 975 s.

Compound `COc1ccc(-n2c(=O)n(C)c(=O)c3cc(C(=O)Nc4ccccc4C(N)=O)cnc32)cc1` registered an RP-LC retention time of 787 s.

Take `Cc1ccc(NC(=O)N2CCC(n3c(C(F)(F)F)nc4cccnc43)CC2)cc1F`: the RP-LC retention time is 944 s.

Compound `Cc1ccc(F)cc1S(=O)(=O)N1CCC2(C1)C(=O)Nc1ccccc12` (stereo not given) yielded an RP-LC retention time of 866 s.

Regarding `Cc1ccc(CNC(=O)CCc2c(-c3ccc(Br)cc3)nc3ccccn23)cc1`, the RP-LC retention time turned out to be 709 s.

As for `Cc1ccccc1NC(=O)N1CCC(CC(=O)N2CCCCC2)CC1`, the RP-LC retention time came out at 732 s.

`Cc1nc2cc(-c3noc(-c4c(F)cccc4Cl)n3)ccc2o1` displayed an RP-LC retention time of 1100 s.

The compound `CCCc1ccc(OCC(O)CN2CCN(C)CC2)cc1` (stereo not given) came in with an RP-LC retention time of 551 s.

The compound `Cc1cc(C)c(C(=O)N2CCC(CC(=O)NCc3ccc4c(c3)OCO4)CC2)[nH]1` had an RP-LC retention time of 724 s.

`Cc1cc(C)cc(NS(=O)(=O)c2c(C)sc(C)c2-c2cc(C(F)(F)F)on2)c1` came in with an RP-LC retention time of 1240 s.
